Molecular target: Neuropeptide FF receptor 1 (Homo sapiens, UniProt Q9GZQ6)
Experiment: Competitive antagonist activity at human NPFF1 receptor expressed in COS1 cells assessed as inhibition of NPVF-induced [3H]inositol phosphate accumulation after 2 hrs by liquid scintillation counting

Neuropeptide FF receptor 1, sequence (Q9GZQ6 whole entry): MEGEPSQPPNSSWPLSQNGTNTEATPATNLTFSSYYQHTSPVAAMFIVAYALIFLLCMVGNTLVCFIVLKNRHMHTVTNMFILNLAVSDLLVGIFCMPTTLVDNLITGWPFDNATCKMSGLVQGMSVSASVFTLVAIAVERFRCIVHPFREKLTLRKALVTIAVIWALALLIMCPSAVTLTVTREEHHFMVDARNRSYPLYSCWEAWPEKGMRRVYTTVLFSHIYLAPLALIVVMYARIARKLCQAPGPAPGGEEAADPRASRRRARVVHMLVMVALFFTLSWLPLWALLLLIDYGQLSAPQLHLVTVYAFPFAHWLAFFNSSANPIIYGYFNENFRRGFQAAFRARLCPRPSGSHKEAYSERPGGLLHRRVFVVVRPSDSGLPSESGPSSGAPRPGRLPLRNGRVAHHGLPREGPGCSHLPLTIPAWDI

Kd: 41.7 nM
Compound: NC(N)=NN=CC12CC3CC(CC(C3)C1)C2

Source: BindingDB's records for doi:10.1021/jm300535s (Leipzig University, 2012)
